Test results taken from patent US20150175603A1, “TRICYCLIC COMPOUNDS AS KAT II INHIBITORS” (PFIZER INC., priority 2012, published 2015).
Counter-ions that a name gives are not always drawn.

target: human KAT II (hKAT II) enzyme (Homo sapiens, UniProt Q8N5Z0); experiment: KAT II Inhibition Spectra Assay; assay type: biochemical; conditions: single determination unless marked a (geometric mean of 2-4 determinations); decrease in OD370, L-kynurenine substrate, 37° C. for 15-20 h; read-out: KATII IC50
Description: KAT II Inhibition Spectra Assay
Formation of kynurenic acid (KYNA) is indirectly assessed by a decrease in light absorbance at 370 nm (OD370) as the L-kynurenine (KYN) substrate is converted by the human KAT II (hKAT II) enzyme into KYNA. An inhibitor would therefore inhibit the decrease in OD370.
The protocol was performed by placing the following reagents into a Costar 384 well black plate (30 μL total assay volume/well): • 10 μL of 3× concentrated compound; • 10 μL of 3× concentrated substrate mix (BGG (Sigma G-5009); 3 mM L-Kynurenine in 150 mM Tris Acetate (Sigma K3750); 3 mM α-ketoglutaric acid in 150 mM Tris Acetate (Sigma K2010); and 210 μM pyridoxal 5-phosphate (PLP) in 150 mM Tris Acetate (Sigma 9255)); and • 10 μL of 3× concentrated enzyme (15 nM enzyme in 150 mM Tris Acetate with 0.3% bovine serum).
Plates were sealed and incubated at 37° C. for 15-20 h before reading OD370 on a SpectraMax Plus plate reader. IC50s were generated by comparing the efficacy of compounds across a concentration range to inhibit a reduction in the OD370 value relative to assay wells with DMSO added in place of concentrated compound. Biological data for the Examples may be found in Table 2.

Sequence of human KAT II (hKAT II) enzyme (Q8N5Z0 30-425): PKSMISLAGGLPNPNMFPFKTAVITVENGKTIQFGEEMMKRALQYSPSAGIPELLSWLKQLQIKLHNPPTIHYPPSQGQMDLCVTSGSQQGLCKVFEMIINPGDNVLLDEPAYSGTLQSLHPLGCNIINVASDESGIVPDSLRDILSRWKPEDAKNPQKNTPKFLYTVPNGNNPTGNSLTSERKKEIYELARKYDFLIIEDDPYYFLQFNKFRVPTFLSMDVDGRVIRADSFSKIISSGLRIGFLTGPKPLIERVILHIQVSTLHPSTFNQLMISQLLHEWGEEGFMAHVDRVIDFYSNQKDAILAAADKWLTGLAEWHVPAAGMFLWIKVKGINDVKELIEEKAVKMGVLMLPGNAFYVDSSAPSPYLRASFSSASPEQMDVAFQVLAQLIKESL

IC50 [nM]	Structure (SMILES)
197	COc1ncccc1-c1ccc2c(c1)CC(N)c1n[nH]c(=O)n1-2 (stereo not shown) [Example 33, 4—amino—7—(2—methoxypyridin—3—yl)—4,5—dihydro[1,2,4]triazolo[4,3—a]quinolin—1(2H)—one, trifluoroacetate salt]
415	NC1Cc2cc(-c3cccc(F)c3)ccc2-n2c1n[nH]c2=O (stereo not shown) [Example 34, 4—amino—7—(3—fluorophenyl)—4,5—dihydro[1,2,4]triazolo[4,3—a]quinolin—1(2H)—one, trifluoroacetate salt]
1380	NC1Cc2cc(-c3ccc(Cl)cc3Cl)ccc2-n2c1n[nH]c2=O (stereo not shown) [Example 35, 4—amino—7—(2,4—dichlorophenyl)—4,5—dihydro[1,2,4]triazolo[4,3—a]quinolin—1(2H)—one, trifluoroacetate salt]
632	Cn1nccc1-c1ccc2c(c1)CC(N)c1n[nH]c(=O)n1-2 (stereo not shown) [Example 36, 4—amino—7—(1—methyl—1H—pyrazol—5—yl)—4,5—dihydro[1,2,4]triazolo[4,3—a]quinolin—1(2H)—one, trifluoroacetate salt]
527	NC1Cc2cc(-c3ccccc3OC(F)(F)F)ccc2-n2c1n[nH]c2=O (stereo not shown) [Example 37, 4—amino—7—[2—(trifluoromethoxy)phenyl]—4,5—dihydro[1,2,4]triazolo[4,3—a]quinolin—1(2H)—one, trifluoroacetate salt]
591	Cc1ccc(C)c(-c2ccc3c(c2)CC(N)c2n[nH]c(=O)n2-3)c1 (stereo not shown) [Example 38, 4—amino—7—(2,5-dimethylphenyl)—4,5—dihydro[1,2,4]triazolo[4,3—a]quinolin—1(2H)—one, trifluoroacetate salt]
968	CCOc1ccc(Cl)cc1-c1ccc2c(c1)CC(N)c1n[nH]c(=O)n1-2 (stereo not shown) [Example 39, 4—amino—7—(5—chloro—2—ethoxyphenyl)—4,5—dihydro[1,2,4]triazolo[4,3—a]quinolin—1(2H)—one, trifluoroacetate salt]
320	NC1Cc2cc(-c3ccccc3C(F)(F)F)ccc2-n2c1n[nH]c2=O (stereo not shown) [Example 40, 4—amino—7—[2—(trifluoromethyl)phenyl]—4,5—dihydro[1,2,4]triazolo[4,3—a]quinolin—1(2H)—one, trifluoroacetate salt]
1080	Cn1cc2c(-c3ccc4c(c3)CC(N)c3n[nH]c(=O)n3-4)cccc2n1 (stereo not shown) [Example 41, 4—amino—7—(2—methyl—2H—indazol—4—yl)—4,5—dihydro[1,2,4]triazolo[4,3—a]quinolin—1(2H)—one, trifluoroacetate salt]
849	NC1Cc2cc(-c3ccc(F)nc3)ccc2-n2c1n[nH]c2=O (stereo not shown) [Example 42, 4—amino—7—(6—fluoropyridin—3—yl)—4,5—dihydro[1,2,4]triazolo[4,3—a]quinolin—1(2H)—one, trifluoroacetate salt]
263	Cc1cc(-c2ccc3c(c2)CC(N)c2n[nH]c(=O)n2-3)cnc1F (stereo not shown) [Example 43, 4—amino—7—(6—fluoro—5—methylpyridin—3—yl)—4,5—dihydro[1,2,4]triazolo[4,3—a]quinolin—1(2H)—one, trifluoroacetate salt]
426	NC1Cc2cc(Cc3ccccc3)ccc2-n2c1n[nH]c2=O (stereo not shown) [Example 44, 4—amino—7—benzyl—4,5—dihydro[1,2,4]triazolo[4,3—a]quinolin—1(2H)—one, hydrochloride salt]
790	NC1Cc2cc(-c3ccccc3)ccc2-n2c1n[nH]c2=O (stereo not shown) [Example 45, 4—amino—7—phenyl—4,5-dihydro[1,2,4]triazolo[4,3—a]quinolin—1(2H)—one, hydrochloride salt]
1130	COc1cc2c(cc1Cc1ccccc1)CC(N)c1nncn1-2 (stereo not shown) [Example 46, 7—benzyl—8—methoxy—4,5—dihydro[1,2,4]triazolo[4,3—a]quinolin—4—amine, hydrochloride salt]
637	COc1cc2c(cc1Cc1ccccc1)CC(N)c1n[nH]c(=O)n1-2 (stereo not shown) [Example 47, 4—amino—7—benzyl—8—methoxy—4,5—dihydro[1,2,4]triazolo[4,3—a]quinolin—1(2H)—one, hydrochloride salt]
83.7	NC1Cc2cc(Oc3ccccc3)ccc2-n2c1n[nH]c2=O (stereo not shown) [Example 48, 4—amino—7—phenoxy—4,5—dihydro[1,2,4]triazolo[4,3—a]quinolin—1(2H)—one, hydrochloride salt]
